Like-named read-outs stand apart in the source and are kept apart here.
Legend:
PSMA = biological target: T1, PSMA (Homo sapiens, UniProt Q04609); conditions: ref Borgna & Deberle et al., Mol Pharm 2022; cited from earlier work
T1 construct: expressed in transfected cells; host or cells: PC-3 PIP prostate cancer cells (transduced to express PSMA), provided by Prof; Dr. Martin Pomper, Johns Hopkins University

[1] = tested on: PSMA-positive PC-3 PIP tumor xenografts; design: method as in Borgna & Deberle et al., Mol Pharm 2022; conditions: 5 MBq, ref Borgna & Deberle et al., Mol Pharm 2022; cited from earlier work
[2] = tested on: PSMA-positive PC-3 PIP tumor xenografts; test: Therapy study in PC-3 PIP tumor-bearing mice; assay type: in vivo, BALB/c nude mice; conditions: 10 MBq
Protocol: Five days after subcutaneous inoculation of four groups of mice with either PC-3 PIP or PC-3 flu tumor cells on the right shoulder (4 × 10^6 cells in 100 μL HBSS), the mice were intravenously injected with either vehicle only (saline with 0.05% BSA, n = 6 and n = 4, respectively) or with 30 kBq [^225Ac]Ac-SibuDAB (1 nmol per mouse; n = 4 per group) diluted in vehicle (Table 1).
After tumor cell inoculation, mice bearing PC-3 PIP tumor xenografts were intravenously injected with vehicle only (n = 6) or with [^225Ac]Ac-SibuDAB or [^225Ac]Ac-PSMA-617, respectively, applied at 5 kBq or 10 kBq (1 nmol per mouse; n = 6 per group; Table 1). The control group consisted of mice from several studies (n = 12 mice) and the data from this group were published previously.
After administration of the radioligands, the mice were monitored over 8 weeks using the same measures as previously published by Umbricht et al.. The relative body mass was defined as [BMx/BM0], where BMx is the body mass in grams at a given Day x and BM0 is the body mass in grams at Day 0. The tumor dimension was determined by measuring the longest tumor axis (L) and its perpendicular axis (W) with a digital caliper. The tumor volume (V) was calculated according to the equation [V = 0.5 × (LW^2)]. The relative tumor volume was defined as [TVx/TV0], where TVx is the tumor volume in mm^3 at a given Day x, and TV0 is the tumor volume in mm^3 at Day 0. Endpoint criteria that required euthanasia were defined as (i) body mass loss of >15%, (ii) a tumor volume of >800 mm^3, (iii) a combination of body mass loss of >10% and a tumor volume of >700 mm^3 or, (iv) signs of unease and pain or a combination thereof using a scoring system as previously reported. The median survival of mice of each group was assessed with Kaplan–Meier curves. Potential early side effects for mice that survived until study end were determined based on blood chemistry and organ-to-brain mass ratios on Day 56 by comparison to values obtained from an additional group of therapy-naïve mice (n = 4) without tumors but of the same age (Supplementary Material: Section S9).
Table S10. Biodistribution data and tumor-to-background ratios obtained in PC3-PIP/flu tumor-bearing mice 48 h after injection of [225Ac]Ac-SibuDAB, [177Lu]Lu-SibuDAB, [225Ac]Ac-PSMA-617 or [177Lu]Lu-PSMA-617. Decay-corrected data of accumulated activity are shown as [% IA/g]-values, representing the average ± SD.
Biodistribution data at 48 h p.i.
1 Data of [177Lu]Lu-PSMA-617 were previously published by Benešová et al., Mol Pharm 2018 [2]; Copyright 2018, American Chemical Society.
Purpose: In order to determine the therapeutic efficacy of [225Ac]Ac-SibuDAB in com-parison to [225Ac]Ac-PSMA-617 as well as the 177Lu-labeled counterparts, therapy studies were conducted in PC-3 PIP xenograft-bearing BALB/c nude mice.
Methods: The methods of the therapy study to assess the therapeutic efficacy of [225Ac]Ac-SibuDAB are reported in the main manuscript. An additional group of mice was treated with 10 MBq (1 nmol) [177Lu]Lu-SibuDAB under the same experimental condi-tions. Data previously acquired by our group for mice treated with 5 MBq [177Lu]Lu-SibuDAB were published by Borgna & Deberle et al. and data of mice treated with 5 MBq or 10 MBq [177Lu]Lu-PSMA-617 were previously published by Tschan et al. and Umbricht et al., respectively.
Results: The assessment of the PSMA-specific therapeutic effect of [225Ac]Ac-SibuDAB as well as the comparison to [225Ac]Ac-PSMA-617 are described in the main ar-ticle. The body mass of effectively treated mice, in which the tumor disappeared entirely […]
tumor-bearing mice that were treated with only vehicle as well as for some mice that were treated with 5 kBq or 10 kBq [225Ac]Ac-PSMA-617 and experienced a relapse in tumor

[3] = tested on: PC3-PIP/flu tumor-bearing mice; test: Biodistribution studies; assay type: in vivo, BALB/c nude mice; conditions: 48 h p.i.
[4] = cited from earlier work
[5] = tested on: PC3-PIP/flu tumor-bearing mice; conditions: ref Borgna & Deberle et al., Mol Pharm 2022, cited from earlier work
[6] = tested on: PSMA-positive PC-3 PIP cells; conditions: 4 h incubation; ref Borgna & Deberle et al., Mol Pharm 2022; cited from earlier work

T1 sequence (Q04609 whole entry): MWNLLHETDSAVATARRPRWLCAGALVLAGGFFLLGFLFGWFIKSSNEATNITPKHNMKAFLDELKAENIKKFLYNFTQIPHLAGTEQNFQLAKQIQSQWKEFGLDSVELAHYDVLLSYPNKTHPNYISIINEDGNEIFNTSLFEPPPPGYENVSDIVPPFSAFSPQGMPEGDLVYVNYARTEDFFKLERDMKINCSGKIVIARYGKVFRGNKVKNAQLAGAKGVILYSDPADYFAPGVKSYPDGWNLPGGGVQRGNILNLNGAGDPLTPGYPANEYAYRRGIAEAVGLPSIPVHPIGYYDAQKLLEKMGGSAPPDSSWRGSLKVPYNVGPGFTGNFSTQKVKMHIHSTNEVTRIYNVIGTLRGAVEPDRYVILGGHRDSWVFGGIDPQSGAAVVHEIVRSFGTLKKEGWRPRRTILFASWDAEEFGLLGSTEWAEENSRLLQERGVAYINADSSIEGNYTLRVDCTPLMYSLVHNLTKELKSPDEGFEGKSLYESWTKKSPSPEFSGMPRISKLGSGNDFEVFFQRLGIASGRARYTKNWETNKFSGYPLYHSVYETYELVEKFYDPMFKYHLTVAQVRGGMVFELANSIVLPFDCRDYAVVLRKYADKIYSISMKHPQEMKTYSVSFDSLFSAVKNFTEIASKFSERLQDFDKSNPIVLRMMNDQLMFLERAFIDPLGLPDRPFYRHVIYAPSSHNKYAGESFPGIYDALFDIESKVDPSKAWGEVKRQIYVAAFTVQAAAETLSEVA

For CC(C)Cc1ccc(C(C)C(=O)NC(CCN)C(=O)NCCCCC(NC(=O)CN2CCN(CC(=O)[O-])CCN(CC(=O)[O-])CCN(CC(=O)[O-])CC2)C(=O)NCC2CCC(C(=O)NC(Cc3ccc4ccccc4c3)C(=O)NCCCCC(NC(=O)NC(CCC(=O)O)C(=O)O)C(=O)O)CC2)cc1.[177Lu+3] (stereo not shown) [[^177Lu]Lu-SibuDAB], the Kd (PSMA) is given as 27 nM, the “mice whose tumor xenografts disappeared completely without relapse until Day 56” value [1] is given as “two out of six” and the “start of tumor regrowth in the other mice” value [1] is given as ~ 4 weeks. For the same compound, the “mice whose tumor xenografts disappeared completely without relapse until Day 56” value [2] was “five out of six”, the “start of tumor regrowth in the other mice” value [2] was ~ 7 weeks and the “mice whose tumor xenografts disappeared completely without relapse until Day 56” value ([2]; listed as [177Lu]Lu-SibuDAB) was “five out”. For the same compound, the “Blood, accumulated activity” value [3] was 0.27 ± 0.04 % IA/g, the “Bone, accumulated activity” value [3] was at most 0.10 % IA/g and the “Heart, accumulated activity” value [3] was 0.14 ± 0.02 % IA/g. For the same compound, the “Intestines, accumulated activity” value [3] was 0.10 ± 0.03 % IA/g, the “Kidneys, accumulated activity” value [3] was 3.5 ± 0.7 % IA/g and the “Liver, accumulated activity” value [3] was 0.44 ± 0.06 % IA/g. The “Lung, accumulated activity” value [3] was 0.33 ± 0.07 % IA/g, the “Muscle, accumulated activity” value [3] was 0.07 ± 0.02 % IA/g and the “PC-3 PIP tumor, accumulated activity” value [3] was 69 ± 12 % IA/g. The “PC-3 flu tumor, accumulated activity” value [3] was 0.30 ± 0.07 % IA/g, the “Salivary glands, accumulated activity” value [3] was 0.18 ± 0.05 % IA/g and the “Spleen, accumulated activity” value [3] was 0.43 ± 0.10 % IA/g. The “Stomach, accumulated activity” value [3] was 0.12 ± 0.06 % IA/g, the Tumor-to-blood ratio [3] was 252 ± 24 and the Tumor-to-kidney ratio [3] was 20 ± 2. For the same compound, the Tumor-to-liver ratio [3] was 157 ± 14, the logD value [4] was −2.3 ± 0.1 and the “Blood, accumulated activity” value ([5]; 1 h p.i.) was 17 ± 2 % IA/g. For the same compound, the “Bone, accumulated activity” value ([5]; 1 h p.i.) was 2.1 ± 0.3 % IA/g, the “Heart, accumulated activity” value ([5]; 1 h p.i.) was 5.3 ± 0.8 % IA/g and the “Intestines, accumulated activity” value ([5]; 1 h p.i.) was 1.8 ± 0.3 % IA/g. The “Kidneys, accumulated activity” value ([5]; 1 h p.i.) was 22 ± 5 % IA/g, the “Liver, accumulated activity” value ([5]; 1 h p.i.) was 3.5 ± 0.6 % IA/g and the “Lung, accumulated activity” value ([5]; 1 h p.i.) was 12 ± 2 % IA/g. For the same compound, the “Muscle, accumulated activity” value ([5]; 1 h p.i.) was 1.9 ± 0.3 % IA/g, the “PC-3 PIP tumor, accumulated activity” value ([5]; 1 h p.i.) was 38 ± 7 % IA/g and the “PC-3 flu tumor, accumulated activity” value ([5]; 1 h p.i.) was 2.7 ± 0.4 % IA/g. For the same compound, the “Salivary glands, accumulated activity” value ([5]; 1 h p.i.) was 3.5 ± 0.4 % IA/g, the “Spleen, accumulated activity” value ([5]; 1 h p.i.) was 3.0 ± 0.4 % IA/g and the “Stomach, accumulated activity” value ([5]; 1 h p.i.) was 1.5 ± 0.4 % IA/g. The Tumor-to-blood ratio ([5]; 1 h p.i.) was 2.3 ± 0.5, the Tumor-to-kidney ratio ([5]; 1 h p.i.) was 1.7 ± 0.3 and the Tumor-to-liver ratio ([5]; 1 h p.i.) was 11 ± 2. The “Blood, accumulated activity” value ([5]; 4 h p.i.) was 2.9 ± 1.9 % IA/g, the “Bone, accumulated activity” value ([5]; 4 h p.i.) was 0.49 ± 0.27 % IA/g and the “Heart, accumulated activity” value ([5]; 4 h p.i.) was 1.1 ± 0.7 % IA/g. The “Intestines, accumulated activity” value ([5]; 4 h p.i.) was 0.46 ± 0.23 % IA/g, the “Kidneys, accumulated activity” value ([5]; 4 h p.i.) was 12 ± 3 % IA/g and the “Liver, accumulated activity” value ([5]; 4 h p.i.) was 1.3 ± 0.5 % IA/g. The “Lung, accumulated activity” value ([5]; 4 h p.i.) was 3.1 ± 2.8 % IA/g, the “Muscle, accumulated activity” value ([5]; 4 h p.i.) was 0.39 ± 0.22 % IA/g and the “PC-3 PIP tumor, accumulated activity” value ([5]; 4 h p.i.) was 66 ± 11 % IA/g. For the same compound, the “PC-3 flu tumor, accumulated activity” value ([5]; 4 h p.i.) was 0.95 ± 0.71 % IA/g, the “Salivary glands, accumulated activity” value ([5]; 4 h p.i.) was 0.82 ± 0.43 % IA/g and the “Spleen, accumulated activity” value ([5]; 4 h p.i.) was 1.1 ± 0.6 % IA/g. The “Stomach, accumulated activity” value ([5]; 4 h p.i.) was 0.49 ± 0.29 % IA/g, the Tumor-to-blood ratio ([5]; 4 h p.i.) was 49 ± 51 and the Tumor-to-kidney ratio ([5]; 4 h p.i.) was 5.5 ± 1.5. For the same compound, the Tumor-to-liver ratio ([5]; 4 h p.i.) was 61 ± 29, the “Blood, accumulated activity” value ([5]; 24 h p.i.) was 0.26 ± 0.08 % IA/g and the “Bone, accumulated activity” value ([5]; 24 h p.i.) was 0.11 ± 0.04 % IA/g. The “Heart, accumulated activity” value ([5]; 24 h p.i.) was 0.15 ± 0.05 % IA/g, the “Intestines, accumulated activity” value ([5]; 24 h p.i.) was 0.13 ± 0.06 % IA/g and the “Kidneys, accumulated activity” value ([5]; 24 h p.i.) was 4.3 ± 1.0 % IA/g. For the same compound, the “Liver, accumulated activity” value ([5]; 24 h p.i.) was 0.54 ± 0.18 % IA/g, the “Lung, accumulated activity” value ([5]; 24 h p.i.) was 0.31 ± 0.10 % IA/g and the “Muscle, accumulated activity” value ([5]; 24 h p.i.) was at most 0.10 % IA/g. For the same compound, the “PC-3 PIP tumor, accumulated activity” value ([5]; 24 h p.i.) was 62 ± 18 % IA/g, the “PC-3 flu tumor, accumulated activity” value ([5]; 24 h p.i.) was 0.38 ± 0.09 % IA/g and the “Salivary glands, accumulated activity” value ([5]; 24 h p.i.) was 0.18 ± 0.05 % IA/g. The “Spleen, accumulated activity” value ([5]; 24 h p.i.) was 0.40 ± 0.13 % IA/g, the “Stomach, accumulated activity” value ([5]; 24 h p.i.) was 0.12 ± 0.06 % IA/g and the Tumor-to-blood ratio ([5]; 24 h p.i.) was 247 ± 34. For the same compound, the Tumor-to-kidney ratio ([5]; 24 h p.i.) was 14 ± 1, the Tumor-to-liver ratio ([5]; 24 h p.i.) was 117 ± 14 and the Cell uptake [6] was 53 ± 1%. The Internalized fraction [6] was 15 ± 2%.

Reference: paper PMC9688344, “[^225Ac]Ac-SibuDAB for Targeted Alpha Therapy of Prostate Cancer: Preclinical Evaluation and Comparison with [^225Ac]Ac-PSMA-617” (Cancers, 2022)
